Experimental data: article PMC4312198 (Biomaterials, 2014)

Assays:
[1] = system: SKOV-3 ovarian cancer cells; assay: MTS cytotoxicity and combination index, SKOV-3; assay type: cell-based, human
[2] = system: ES-2 ovarian cancer cells; assay: MTS cytotoxicity and combination index, ES-2; assay type: cell-based
Hela cells = assay: MTS cytotoxicity and combination index, Hela; assay type: cell-based; conditions: 72 h
[3] = system: SKOV3 ovarian cancer tumor; assay: Tissue biodistribution of Pt; assay type: in vivo, mouse; conditions: 48 h post-injection, CDDP 6 mg/kg i.v.
mouse models = mouse models ref 37, 38; cited from earlier work
[4] = system: SKOV-3 ovarian cancer xenografts; assay: In vivo anticancer efficacy
[5] = Plasma pharmacokinetics of platinum
SKOV-3 tumor xenograft = assay: NIRF optical animal imaging; set-up: species or system mouse; conditions: in vivo NIRF after tail vein injection
[6] = Pt in plasma, two compartment model, i.v.

## [NH2][Pt]([NH2])([Cl])[Cl] [CDDP, Cisplatin]
[1]; SKOV-3, 72 h, first figure of x/y cells
  IC50, as CDDP concentration: 1.354 µg/mL
[2]; ES2, 72 h, first figure of x/y cells
  IC50, as CDDP concentration: 0.92 µg/mL
Hela cells; Hela, first figure of x/y cells
  IC50, as CDDP concentration: 2.427 µg/mL
[3]
  Kidney/tumor ratio of Pt concentrations: 4
  Liver/tumor ratio of Pt concentrations: 2
Mouse models
  Maximum tolerated dose (MTD): ≤ 4 mg/kg
[4]; 4 mg/kg CDDP
  Medium survival time: 15 days
[4]; 4 mg/kg CDDP i.v. day 0, 4, 8, on day 12
  Body weight loss: exceeded 20%
[4]; 4 mg/kg CDDP, day 7 after last injection
  WBC counting vs PBS control: significantly decreased
[4]; 4 mg/kg CDDP, died on day 12, 13, 15, 16 and 17
  Animal death due to severe side effects: all animals
[5]; 30 min after i.v. injection
  Pt of injected dose remaining in plasma: 5%
[5]; 24 h after i.v. injection
  Pt of injected dose remaining in plasma: less than 1%
[5]; [6]
  CL2: 9.3217 mL/min/kg
  t1/2α: 2.64 min
[5]; mouse, in vivo
  Clearance rate (Cl) relative to nanotherapeutics, both phases: 20–25 fold

## CCCCCCCCCCCCCCCCCCN1/C(=C/C=C/C=C/C2=[N+](CCCCCCCCCCCCCCCCCC)c3ccccc3C2(C)C)C(C)(C)c2ccccc21.[O-][Cl+3]([O-])([O-])[O-] [free DiD]
SKOV-3 tumor xenograft
  Tumor fluorescence in vivo: very weak tumor fluorescence

## CC(=O)O[C@H]1C(=O)[C@@]2(C)[C@H]([C@H](OC(=O)c3ccccc3)[C@]3(O)C[C@H](OC(=O)[C@H](O)[C@@H](NC(=O)c4ccccc4)c4ccccc4)C(C)=C1C3(C)C)[C@]1(OC(C)=O)CO[C@@H]1C[C@@H]2O [PTX, paclitaxel]
[1]; Homo sapiens, SK-OV-3, 72 h, read-out: IC50, as PTX concentration
  IC50: 0.032 µg/mL
[2]; 72 h, read-out: IC50, as PTX concentration
  IC50: 0.055 µg/mL
Hela cells; Homo sapiens, HeLa, read-out: IC50, as PTX concentration
  IC50: 0.02 µg/mL
